“Also recorded” adds a separate entry of the source.
Legend:
[1] = blood serum or cell extracts; cited from earlier work
[2] = tested on: chicken anti-AZTMP antibodies; test: Competitive assay for anti-AZTMP antibody specificity (AZXMP hapten coated plates); format: binding; conditions: increasing amounts of competitor added to anti-AZTMP antibody solution; FIG. 2
Protocol: FIG. 2 Anti-AZTMP antibody specificity. Dose response curve for the competitive assay, according to example 1, between free AZTMP (left curve, denoted AZTMP) or AZT (right curve, denoted AZT) and Immobilised hapten, AZXMP (see FIG. 1) illustrating the specificity of chicken anti-AZTMP antibodies. Y-axis: original absorbance values (B) are normalised against values obtained in the absence of competitor (B0) to obtain (B/B0).
Antibody specificity and titre were evaluated using the competitive assay format described in example 4. To evaluate non-specific binding the antibody was substituted with diluent. Antibody specificity and titre was also evaluated using an assay whereby AZXMP hapten was coated to plates. AZXMP was conjugated to BSA using GA as linker and subsequently coated to the microtiter plates. In this assay, 100 μl of serially diluted antibody solutions were first incubated with AZXMP coated wells for 1 h at RT.
Wells of microtiter plates were washed three times with PBST (PBS plus 0,05% Tween 20). 100 μL of secondary antibody (diluted Horse Radish Peroxidase (HRP)-labelled anti-Goat IgG solution or anti-IgY antibody) was added and incubated for 30 min at room temperature. After 3 times washing with 250 μl PBST, bound antibody complexes were detected using TMB as substrate. The induced colour reaction was stopped after 5 min using 1M H2SO4 and detected at 450 nm. […]

serum TK = test: Serum TK measurement with tritium labelled AZT; format: biochemical, human; conditions: 16 clinical patient serum samples, 4 h at 37° C.
Protocol: In order to determine if serum TK can use AZT as substrate, an experiment was performed with 16 clinical patient serum samples (20 μl) mixed with 2 μL ^3H-AZT (Ci/mmol Moraveck Inc, USA) and 20 μL reaction mixture containing 10 mM Tris-HCl (pH 7.6), 5 mM ATP, 5 mM MgCl2, 3.5 mM NaF, 2 mM DTT. The assay was performed 4 h at 37° C. and the amount of AZTMP formed was determined by DE 51 ion exchange paper method as described (9). Previous experiments had established that this amount of serum gave a linear reaction during the time period tested.

TK1 = target: T1, TK1 (Homo sapiens, UniProt P04183); conditions: almost the same relative efficiency as Thymidine; cited from earlier work
T1 sequence (P04183 1-234): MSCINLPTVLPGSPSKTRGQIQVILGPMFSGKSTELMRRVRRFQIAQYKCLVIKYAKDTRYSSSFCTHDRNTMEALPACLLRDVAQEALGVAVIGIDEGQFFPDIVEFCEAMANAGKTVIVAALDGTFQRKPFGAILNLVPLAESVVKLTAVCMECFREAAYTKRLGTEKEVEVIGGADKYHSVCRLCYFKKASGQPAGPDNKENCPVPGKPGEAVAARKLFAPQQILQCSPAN

TK2 = target: T2, TK2 (Homo sapiens, UniProt O00142); conditions: cited from earlier work
T2 sequence (O00142 34-265): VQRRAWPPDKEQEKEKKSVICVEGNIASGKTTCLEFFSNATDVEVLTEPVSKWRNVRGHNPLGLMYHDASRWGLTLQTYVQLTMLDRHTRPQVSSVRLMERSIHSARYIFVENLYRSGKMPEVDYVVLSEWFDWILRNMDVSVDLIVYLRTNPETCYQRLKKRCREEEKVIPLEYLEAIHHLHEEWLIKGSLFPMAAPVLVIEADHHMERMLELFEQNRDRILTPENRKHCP

thymidine phosphatase = target: T3, thymidine phosphatase (Homo sapiens, UniProt P19971); conditions: in blood serum or in cell extracts; cited from earlier work
T3 sequence (P19971 11-482): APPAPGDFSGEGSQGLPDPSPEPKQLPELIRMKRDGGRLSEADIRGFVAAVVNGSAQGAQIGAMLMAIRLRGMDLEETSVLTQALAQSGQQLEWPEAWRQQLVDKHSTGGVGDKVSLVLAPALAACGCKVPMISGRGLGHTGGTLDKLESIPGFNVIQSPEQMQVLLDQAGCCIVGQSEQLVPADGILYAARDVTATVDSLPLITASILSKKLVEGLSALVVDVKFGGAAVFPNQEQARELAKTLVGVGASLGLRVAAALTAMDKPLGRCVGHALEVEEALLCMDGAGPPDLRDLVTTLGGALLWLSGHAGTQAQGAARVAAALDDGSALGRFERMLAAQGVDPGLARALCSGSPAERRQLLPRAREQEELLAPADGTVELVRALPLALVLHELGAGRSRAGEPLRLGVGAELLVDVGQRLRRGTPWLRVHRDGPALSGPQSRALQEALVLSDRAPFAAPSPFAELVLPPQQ

phosphatases = test: TK ELISA with UMP in substrate buffer to inhibit phosphatase activity; format: biochemical, human; conditions: 1 mM UMP; two of four tested sera
Protocol: A potential problem for the analysis of a kinase activity in patient sera is the presence of phosphatase activity in the same sera to drive the reverse reaction (dephosphorylaUon). One way to inhibit the phosphatase is to include UMP in the substrate buffer to protect AZTMP from being dephosphorylated to AZT.
Substrate buffers containing 172 mM HEPES, 62 mM NaOH, 62 mM MgCl2*6H2O, 34 mM KCl, 142 mM Mannitol, 7,8 mM ATP, 12 mM DTE, and 25 μg/ml AZT were prepared—with variable concentrations UMP, i.e. 0, 0.1, 1 or 5 mM UMP.
A TK1 standard preparation 80 U/L (in heat inactivated fetal calf serum) was diluted in 9 g/L deionized-water, also used as zero standard level, to give further standard levels of 40, 20, 10, 5 and 2,5 U/L, respectively. Four human sera were also assayed. Two sera were from healthy blood donors and two sera from patients monitored with TK REA.
Next the TK reactions were performed by adding 50 μl of substrate buffer together with 50 μL of TK1 standard/or patient serum sample in non-coated microtitre wells.
The plate was incubated for 60 minutes at 37° C. […]
For the detection 50 μl were transferred to a plate which plate was coated with 1 μg/well rabbit anti chicken IgY (Sigma, MO, USA). […] The TMB reaction was stopped with 100 μl acid TMB stop and the absorbance read at 450 nm.

Compound: Cc1cn([C@H]2C[C@H](N=[N+]=[N-])[C@@H](COP(=O)(O)O)O2)c(=O)[nH]c1=O [AZTMP, AZT-5′-monophosphate]
- metabolic stability [1]: stable metabolites

Compound: Cc1cn([C@H]2C[C@H](N=[N+]=[N-])[C@@H](CO)O2)c(=O)[nH]c1=O [AZT, 3′-azido-3′-deoxythymidine]
- competition with immobilised AZXMP for antibody binding [2]: not able to compete out AZXMP
- use as substrate by serum TK (serum TK): can efficiently use AZT as substrate; also recorded: selective, efficient and stable substrates
- substrate quality for TK1 (TK1): good substrate for TK1
- phosphorylation by TK2 (TK2): low capacity to phosphorylate AZT
- substrate for thymidine phosphatase (thymidine phosphatase): does not use AZT as a substrate
- metabolic stability [1]: stable metabolites

Compound: O=c1ccn([C@@H]2O[C@H](COP(=O)(O)O)[C@@H](O)[C@H]2O)c(=O)[nH]1 [UMP, Uridine monophosphate]
- effect on TK values of tested sera (phosphatases): significantly higher TK values

Reference: patent US20060035295A1, “Method for determination of thymidine kinase 1 activity and the use thereof” (priority 2002, published 2006)
